Reference: patent US20250195498A1, “INHIBITOR OF CELLULAR PURINE NUCLEOTIDE SALVAGE PATHWAY ENZYME FOR USE IN THE TREATMENT AND/OR PREVENTION OF HELICOBACTER PYLORI INFECTION AND/OR DISEASE ASSOCIATED WITH SUCH INFECTION AND PHARMACEUTICAL COMPOSITION COMPRISING THE SAME” (UNIWERSYTET WARSZAWSKI, priority 2022, published 2025)
Read-outs that look alike come from different tables or passages of the source.

Key:
[1] = molecular target: T1, PNP from H. pylori strain 26695 (Helicobacter pylori, UniProt P56463); conditions: formycins; Wojtyś et al., 2021; read-out: inhibition constant; cited from earlier work
T1 construct: made in house; host or cells: E. coli

PNP from E. coli [2] = molecular target: T2, PNP from E. coli (Escherichia coli, UniProt P0ABP8); conditions: read-out: inhibition constant; cited from earlier work
human PNP = molecular target: T3, human PNP (Homo sapiens, UniProt P00491); conditions: Bzowska et al., 2000; cited from earlier work
T3 sequence (P00491 1-289): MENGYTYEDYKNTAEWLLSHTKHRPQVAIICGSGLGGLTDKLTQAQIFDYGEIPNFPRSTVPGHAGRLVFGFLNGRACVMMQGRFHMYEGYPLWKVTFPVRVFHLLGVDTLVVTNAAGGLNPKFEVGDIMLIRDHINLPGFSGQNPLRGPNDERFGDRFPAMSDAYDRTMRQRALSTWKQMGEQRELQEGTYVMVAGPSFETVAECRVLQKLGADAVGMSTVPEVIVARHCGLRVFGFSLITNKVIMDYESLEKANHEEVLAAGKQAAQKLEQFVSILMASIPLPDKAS

H. pylori strain 26695 = test: Growth curve method / MIC in liquid culture, strain 26695; type: cell-based, Helicobacter pylori; conditions: 2.5 mM; strain not stated, method of Example 3
Experimental: The representative PNP inhibitor from H. pylori included in this study was immucillin A. The experiment was conducted using the growth curve method (two-fold serial dilutions in liquid medium). The tested H. pylori strains were cultured in Petri dishes with BHI solid medium supplemented with 10% FBS and 1% H. pylori Selective Supplement antibiotic kit, in anaerostats under microaerophilic conditions (5% 02, 10% CO2, 85% N2) at 37° C. for 3 days. Liquid culture of H. pylori was conducted overnight with shaking at 37° C. under microaerophilic conditions in BHI medium supplemented with 10% FBS and 1% H. pylori Selective Supplement antibiotic kit. Subsequently, for the essential experiment of determining the minimum inhibitory concentration (MIC), double strengthened liquid BHI medium was prepared, that is, supplemented with 20% FBS and a 2% set of H. pylori Selective Supplement antibiotics.
Bacterial proliferation inhibition experiments were carried out in 24-deep-well 2 ml flat-bottomed plates at a solution volume per well of 0.5 ml. In a single well, double strengthened (relative to the concentration planned for testing) solutions of the test inhibitor and double strengthened liquid BHI medium inoculated with H. pylori (10^4-10^5 CFU/ml in the final volume in the well, corresponding to the optical density of the culture OD600=0.05) were mixed together in a 1:1 ratio.
Kanamycin at a concentration of 25 μg/ml (Irie et al., 1997) was used as a positive control, while Mili-Q deionized water and BHI medium not inoculated with bacteria were used as negative controls. Plates were shaken at 37° C., under microaerophilic conditions. […] After 24 hours, the OD600 of samples containing the negative control, i.e. with Mili-Q deionized water, was about 1.2-1.4, corresponding to a bacterial concentration of about […].
In addition, the method proposed by Knezevic et al. (2018) was used to check whether the observed OD600 was from live bacterial cells. For this purpose, an equal volume of Christensen's double strength urea broth (that is, containing twice the concentration of all components) was added to the wells after incubation, and the plates were additionally incubated for 4 hours in an oxygen atmosphere at 37° C. During incubation, in wells with urease produced by live bacteria, urea is converted to ammonia and carbon dioxide, changing the pH of the solution and thus the colour of the phenol red indicator contained in the medium (from orange to purple).
All experiments were performed in triplicate.
The experiments were carried out using the growth curve method as described in Example 3, and the results obtained for two of the compounds tested are shown in FIG. 5. As the water solubility of the compounds tested, with the exception of 2,6-diCl-Pu, is relatively poor, two experiments were carried out: the first with the maximum concentration possible under the experimental conditions in aqueous solution with a small admixture of DMSO, and the second with higher concentrations that led to partial precipitation of the compound.
The antibacterial activity of two compounds, mefloquine (in the form of hydrochloride) and quinine, described in the literature as potent in vitro inhibitors of the PNP enzyme from Plasmodium falciparum (Dziekan et al., 2019), was tested. Using a two-fold serial dilution method in liquid medium (as described in Example 3), the MIC values for mefloquine and quinine were determined against clinical H. pylori strains resistant to MTZ, CLR and MTZ+CLR (M26, M91, M92 and M93), as well as the reference H. pylori strain 26695. Four clinical H. pylori strains isolated from adults, from primary infections (the subjects had never previously been treated against H. pylori infection) were tested. These strains come from the collection of the Department of Microbiology of the Medical University of Wroclaw and were obtained due to collaboration with Prof. Grażyna Gościniak, MD, PhD. […]

[3] = molecular target: T1, PNP from H. pylori strain 26695; test: Inhibition of PNP from H. pylori, spectrophotometric phosphorolysis assay; type: biochemical; conditions: formycins; kinetic methods of Example 1; read-out: inhibition constant
Description: The specific activity of PNP is usually determined using inosine as a substrate, in an assay in which the phosphorolysis product, hypoxanthine, is oxidized to uric acid in a reaction catalysed by xanthine oxidase. However, in the inhibition assay of PNP from H. pylori strain 26695, 7-methylguanosine (m^7Guo) and guanosine (Guo) were used as nucleoside substrates to avoid potential inhibition of xanthine oxidase by the test compounds. Phosphorolysis of these two substrates can be observed using a direct spectrophotometric method in a known manner.
Enzymatic activity was studied in a quartz cuvette with an optical path length of 1 cm or 0.5 cm. The absorbance of the reaction mixture, at the observation wavelength, never exceeded 1.2. The reaction volume was 1 ml or 1.4 ml in cuvettes with optical path lengths of 1 cm and 0.5 cm, respectively. The reaction mixture contained 50 mM Hepes/NaOH buffer, pH 7.0, 50 mM phosphate buffer, pH 7.0 (unless otherwise indicated), nucleoside substrate and inhibitor (with the latter not added to the reference/control reactions). Reactions were usually initiated by adding the enzyme to a cuvette containing the other reaction components. However, in cases where possible slow formation of an inhibitor-enzyme complex was checked, a second variant was also used involving incubation of the enzyme in a reaction mixture containing the inhibitor but lacking the substrate, 7-methylguanosine, and initiation of the reaction by adding this substrate.
In order to determine the inhibition constants and determine the molecular mechanism of inhibition, equations describing different mechanisms of inhibition were fitted to the obtained experimental data. GraphPad Prism 8 program was used. The model best describing the obtained data was selected based on the sum of squares of deviations using the F test for models with different number of parameters and the Akaike criterion (AIC) for models with the same number of parameters.
The following equations were used to describe competitive inhibition, characterized by the inhibition constant Kic, [1], uncompetitive, characterized by the inhibition constant Kiu, [2], non-competitive, characterized by the inhibition constant Kin, [3], and mixed, characterized by the inhibition constants Kiu and Kic, [4] (Segel, 1993):
The last equation can also be represented in the following form, as used by GraphPad Prism software, where Kiu=alpha Kic:
Immucillin A was chosen as the most promising one for potential pharmacological use in combating H. pylori infection because immucillin A has an amino substituent at position 6 of the 9-dazapurine ring, while PNP found in the human body requires a substituent at this position having electron-pairs-hydrogen bond acceptors, such as a substituent in the form of a keto group, to strongly bind the ligand. According to the invention, it is therefore believed that immucillin A will not interact with the host PNP, and thus allow selective inhibition of the PNP from H. pylori. Using the methods described above, the effect of immucillin A on the rate of the 7-methylguanosine (m^7Guo) phosphorolysis reaction catalysed by PNP from H. pylori was examined (FIG. 1). Since it is known (Schramm, 2018) that immucillins form a strongly bound complex with the enzyme relatively slowly, reactions were initiated by adding the substrate, m^7Guo, to a cuvette in which the enzyme was incubated with the inhibitor, as described in Example 1.
Data analysis was also performed as described in this Example. The range of substrate concentrations tested was 10-200 μM or 10-280 μM (shown in FIG. 4), and the range of inhibitor concentrations was chosen according to the observed degree of inhibition of the reaction, in order to obtain a significant degree of inhibition that allows determination of the inhibition mechanism and determination of inhibition constants (see FIG. 4). […]

PNP from E. coli [4] = molecular target: T2, PNP from E. coli; test: Inhibition of PNP from E. coli; type: biochemical; conditions: previous work of the inventors

T1 sequence (P56463 whole entry): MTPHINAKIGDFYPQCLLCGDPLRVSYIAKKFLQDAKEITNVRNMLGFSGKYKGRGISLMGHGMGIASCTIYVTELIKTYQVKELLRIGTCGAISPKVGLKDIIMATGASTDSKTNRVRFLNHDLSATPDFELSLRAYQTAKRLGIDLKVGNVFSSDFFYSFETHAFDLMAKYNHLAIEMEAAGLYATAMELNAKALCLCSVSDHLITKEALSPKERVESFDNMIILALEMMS
T2 sequence (P0ABP8 2-239): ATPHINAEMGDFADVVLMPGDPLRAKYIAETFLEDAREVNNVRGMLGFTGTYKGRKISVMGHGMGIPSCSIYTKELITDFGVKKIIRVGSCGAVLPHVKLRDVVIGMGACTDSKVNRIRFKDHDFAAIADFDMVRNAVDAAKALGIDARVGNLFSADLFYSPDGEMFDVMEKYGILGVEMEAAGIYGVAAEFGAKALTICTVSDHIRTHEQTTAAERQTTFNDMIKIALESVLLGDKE

Row | SMILES | Ki [1] [µM] | Ki (PNP from E. coli [2]) [µM] | inhibition of human PNP (human PNP) | inhibition of H. pylori growth (% of the growth observed without the inhibitor) (H. pylori strain 26695) | Ki [3] [µM] | stronger inhibition than formycin A (PNP from E. coli [4]) [fold]
1 | O=c1[nH]cnc2c([C@@H]3O[C@H](CO)[C@@H](O)[C@H]3O)n[nH]c12 [formycin B] | 1 | ~5 | very weak inhibitor | very weak inhibition | 1 | 
2 | Cn1cnc2c([C@@H]3O[C@H](CO)C(O)[C@@H]3O)nnc-2c1N (some centres unmarked) [6-methylformycin A] |  |  |  |  |  | 10
3 | Nc1ncnc2c([C@@H]3O[C@H](CO)[C@@H](O)[C@H]3O)[nH]nc12 [formycin A] | 14 | ~5 | not an inhibitor | 50% | 14 | 
